Data as given in PubChem BioAssay AID248 (DTP/NCI, 2004).
Where “and” joins values, the source holds several entries; their conditions need not be identical. Equal values may be shown once. Inconclusive results and toxic doses are left out. Rule as the data show it: active = T/C of 150% or more; inactive = T/C below 125%.

Tested on: L1210 leukemia ip in BDF1 mice, survival T/C
Assay: NCI In Vivo Anticancer Drug Screen. Data for tumor model L1210 Leukemia (intraperitoneal) in B6D2F1 (BDF1) mice
Conditions: endpoint: mean survival time, higher = longer survival
Method in brief: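 Tumor was transplanted into mice, which were then dosed with test compound or vehicle alone. Survival was recorded for each group, and the treated figure was expressed relative to the control figure.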

[1] = dose: 100.0 mg/kg/injection, schedule: Q01DX001 (ip), vehicle: saline
[2] = dose: 100.0 mg/kg/injection, schedule: Q01DX009 (ip), vehicle: saline with Tween-80
[3] = dose: 100.0 mg/kg/injection, schedule: Q04DX003 (ip), vehicle: saline with Tween-80
[4] = dose: 200.0 mg/kg/injection, schedule: Q01DX001 (ip), vehicle: saline
[5] = dose: 200.0 mg/kg/injection, schedule: Q01DX009 (ip), vehicle: saline with Tween-80
[6] = dose: 200.0 mg/kg/injection, schedule: Q04DX003 (ip), vehicle: saline with Tween-80
[7] = dose: 400.0 mg/kg/injection, schedule: Q01DX009 (ip), vehicle: saline with Tween-80
[8] = dose: 100.0 mg/kg/injection, schedule: Q01DX009 (ip), vehicle: Klucel (hydroxypropylcellulose) (HPC)
[9] = dose: 200.0 mg/kg/injection, schedule: Q01DX009 (ip), vehicle: Klucel (hydroxypropylcellulose) (HPC)
[10] = dose: 400.0 mg/kg/injection, schedule: Q01DX009 (ip), vehicle: Klucel (hydroxypropylcellulose) (HPC)
[11] = dose: 100.0 mg/kg/injection, schedule: Q04DX003 (ip), vehicle: saline
[12] = dose: 200.0 mg/kg/injection, schedule: Q04DX003 (ip), vehicle: saline
[13] = dose: 400.0 mg/kg/injection, schedule: Q04DX003 (ip), vehicle: saline
[14] = dose: 100.0 mg/kg/injection, schedule: Q04DX003 (ip), vehicle: Klucel (hydroxypropylcellulose) (HPC)
[15] = dose: 100.0 mg/kg/injection, schedule: Q01DX001 (ip), vehicle: carboxymethylcellulose (CMC)
[16] = dose: 200.0 mg/kg/injection, schedule: Q01DX001 (ip), vehicle: carboxymethylcellulose (CMC)
[17] = dose: 400.0 mg/kg/injection, schedule: Q01DX001 (ip), vehicle: carboxymethylcellulose (CMC)
[18] = dose: 50.0 mg/kg/injection, schedule: Q01DX009 (ip), vehicle: saline
[19] = dose: 100.0 mg/kg/injection, schedule: Q01DX009 (ip), vehicle: saline
[20] = dose: 200.0 mg/kg/injection, schedule: Q01DX009 (ip), vehicle: saline
[21] = dose: 100.0 mg/kg/injection, schedule: Q04DX002 (ip), vehicle: saline with Tween-80
[22] = dose: 200.0 mg/kg/injection, schedule: Q04DX002 (ip), vehicle: saline with Tween-80
[23] = dose: 400.0 mg/kg/injection, schedule: Q04DX002 (ip), vehicle: saline with Tween-80

Measured: T/C

O=C(Nc1ccc(F)cc1)c1ccc(C(=O)Nc2ccc(F)cc2)cc1
inactive: dose: 50.0 mg/kg/injection, schedule: Q04DX003 (ip), vehicle: saline with Tween-80 91 % of control | [1] 100 % of control | [2] 100 % of control | [3] 96 % of control | [4] 96 % of control | [5] 108 % of control | [6] 96 % of control | dose: 400.0 mg/kg/injection, schedule: Q01DX001 (ip), vehicle: saline 102 % of control | [7] 94 % of control

COc1ccc(/C=N/NC(=O)c2ccccc2)c(OC)c1
inactive: [8] 100 % of control | [9] 100 % of control | [10] 103 % of control

CC(=O)NC(CC(C)C)C(=O)O (stereo unspecified)
inactive: dose: 25.0 mg/kg/injection, schedule: Q04DX002 (ip), vehicle: saline 96 % of control | dose: 50.0 mg/kg/injection, schedule: Q04DX002 (ip), vehicle: saline 101 % of control | dose: 100.0 mg/kg/injection, schedule: Q04DX002 (ip), vehicle: saline 101 % of control | dose: 200.0 mg/kg/injection, schedule: Q04DX002 (ip), vehicle: saline 90 % of control | dose: 400.0 mg/kg/injection, schedule: Q04DX002 (ip), vehicle: saline 108 % of control

Cc1c(CC[n+]2cccc(C(N)=O)c2)[nH]c(=O)[nH]c1=O
inactive: [11] 97 % of control | [12] 101 % of control | [13] 97 % of control

Oc1ccc(O)c2c1C1(Cl)C(Cl)=C(Cl)C2(Cl)C1(Cl)Cl
inactive: dose: 100.0 mg/kg/injection, schedule: Q04DX003 (ip), vehicle: other 101 % of control | dose: 200.0 mg/kg/injection, schedule: Q04DX003 (ip), vehicle: other 101 % of control | dose: 400.0 mg/kg/injection, schedule: Q04DX003 (ip), vehicle: other 108 % of control

CC(C)=CC(=O)CNC(N)=S
inactive: [14] 100 % of control and 98 % of control | dose: 200.0 mg/kg/injection, schedule: Q04DX003 (ip), vehicle: Klucel (hydroxypropylcellulose) (HPC) 101 % of control | dose: 400.0 mg/kg/injection, schedule: Q04DX003 (ip), vehicle: Klucel (hydroxypropylcellulose) (HPC) 93 % of control

COC(=O)c1[nH]c(=O)[nH]c(=O)c1[N+](=O)[O-]
inactive: dose: 75.0 mg/kg/injection, schedule: Q01DX001 (ip), vehicle: saline 106 % of control | dose: 150.0 mg/kg/injection, schedule: Q01DX001 (ip), vehicle: saline 93 % of control | dose: 300.0 mg/kg/injection, schedule: Q01DX001 (ip), vehicle: saline 93 % of control

CC(C1SCCCS1)C1SCCCS1
inactive: dose: 37.5 mg/kg/injection, schedule: Q04DX002 (ip), vehicle: saline with Tween-80 92 % of control | dose: 75.0 mg/kg/injection, schedule: Q04DX002 (ip), vehicle: saline with Tween-80 92 % of control | dose: 150.0 mg/kg/injection, schedule: Q04DX002 (ip), vehicle: saline with Tween-80 98 % of control | dose: 300.0 mg/kg/injection, schedule: Q04DX002 (ip), vehicle: saline with Tween-80 95 % of control

CCOC(=O)CN(C)c1ccccc1
inactive: dose: 50.0 mg/kg/injection, schedule: Q01DX001 (ip), vehicle: carboxymethylcellulose (CMC) 104 % of control | [15] 107 % of control | [16] 93 % of control | [17] 107 % of control

C1C2OC3CN1CC(O2)O3
inactive: [18] 97 % of control | [19] 97 % of control | [20] 94 % of control

COc1ccccc1C1CCCCC1=O (stereo unspecified)
inactive: dose: 100.0 mg/kg/injection, schedule: Q01DX001 (ip), vehicle: other 105 % of control | dose: 200.0 mg/kg/injection, schedule: Q01DX001 (ip), vehicle: other 96 % of control | dose: 400.0 mg/kg/injection, schedule: Q01DX001 (ip), vehicle: other 89 % of control

CCOC(=O)NCCN(C)C
inactive: [18] 105 % of control | [19] 102 % of control | [11] 99 % of control | [20] 108 % of control | [12] 102 % of control

N#CCCN(CCCN1CCOCC1)C(=S)Nc1ccc(Cl)cc1
inactive: [21] 94 % of control | [22] 90 % of control | [23] 101 % of control

Cc1ccc(NC(=S)N(C)C)cc1
inactive: [8] 104 % of control | [9] 108 % of control | [10] 108 % of control

O=C(c1ccccc1)N1CCN(C(=O)c2ccccc2)C1
inactive: [8] 91 % of control | [9] 98 % of control | [10] 104 % of control

ClC1(c2ccccc2)c2ccccc2C(Cl)(c2ccccc2)c2ccccc21 (stereo unspecified)
inactive: [21] 98 % of control | [22] 92 % of control | [23] 92 % of control

O=[N+]([O-])c1ccc2[nH]c(=S)[nH]c2c1
inactive: [11] 98 % of control | [12] 103 % of control | [13] 95 % of control

Cc1ccc(NCc2nc(N)nc(Nc3ccc(C)cc3)n2)cc1
inactive: [3] 93 % of control | [6] 101 % of control | dose: 400.0 mg/kg/injection, schedule: Q04DX003 (ip), vehicle: saline with Tween-80 97 % of control

O=C(Nc1ccc(C2=NCCN2)c(O)c1)c1ccc(C(=O)Nc2ccc(C3=NCCN3)c(O)c2)cc1
inactive: dose: 8.0 mg/kg/injection, schedule: Q01DX Z (ip), vehicle: carboxymethylcellulose (CMC) 103 % of control | dose: 16.0 mg/kg/injection, schedule: Q01DX Z (ip), vehicle: carboxymethylcellulose (CMC) 88 % of control | dose: 31.0 mg/kg/injection, schedule: Q01DX Z (ip), vehicle: carboxymethylcellulose (CMC) 88 % of control | dose: 62.0 mg/kg/injection, schedule: Q01DX Z (ip), vehicle: carboxymethylcellulose (CMC) 90 % of control

O/N=C/c1ccc(O)cc1
inactive: dose: 50.0 mg/kg/injection, schedule: Q01DX001 (ip), vehicle: saline 96 % of control | [1] 108 % of control | [4] 102 % of control

CCCCCOC(=O)Nc1cccc(OC(=O)NC)c1
inactive: [2] 105 % of control | [5] 96 % of control | [7] 97 % of control

CC(C)(C)C1CCC(NC(=O)C(Cl)Cl)CC1 (stereo unspecified)
inactive: dose: 25.0 mg/kg/injection, schedule: Q01DX009 (ip), vehicle: Klucel (hydroxypropylcellulose) (HPC) 100 % of control | dose: 25.0 mg/kg/injection, schedule: Q04DX003 (ip), vehicle: Klucel (hydroxypropylcellulose) (HPC) 97 % of control | dose: 50.0 mg/kg/injection, schedule: Q01DX009 (ip), vehicle: Klucel (hydroxypropylcellulose) (HPC) 94 % of control | dose: 50.0 mg/kg/injection, schedule: Q04DX003 (ip), vehicle: Klucel (hydroxypropylcellulose) (HPC) 100 % of control | [8] 96 % of control | [14] 90 % of control and 92 % of control

CCCCCC1SC1CC1SC1CCCCCCCC(=O)NCCCOCCOCCOCC (stereo unspecified)
inactive: [2] 121 % of control | [5] 104 % of control

NC(CSc1ccc(Cl)cc1)C(=O)O (stereo unspecified)
inactive: dose: 100.0 mg/kg/injection, schedule: Q04DX003 (sc), vehicle: steriod suspending solution 86 % of control | dose: 200.0 mg/kg/injection, schedule: Q04DX003 (sc), vehicle: steriod suspending solution 86 % of control | dose: 400.0 mg/kg/injection, schedule: Q04DX003 (sc), vehicle: steriod suspending solution 92 % of control

CCCCOc1c(OC)cc(OC)cc1C(=O)O
inactive: [15] 102 % of control | [16] 91 % of control | [17] 86 % of control

COc1ccc2c(c1)CCC1C2CCC2(C)C(=O)OC(=O)C12 (stereo unspecified)
inactive: dose: 100.0 mg/kg/injection, schedule: Q01DX009 (sc), vehicle: steriod suspending solution 109 % of control | dose: 200.0 mg/kg/injection, schedule: Q01DX009 (sc), vehicle: steriod suspending solution 98 % of control | dose: 400.0 mg/kg/injection, schedule: Q01DX009 (sc), vehicle: steriod suspending solution 103 % of control

O=Cc1[nH]c(=S)[nH]c(=O)c1Cc1c(Cl)cccc1Cl
inactive: dose: 100.0 mg/kg/injection, schedule: Q01DX001 (ip), vehicle: saline with Tween-80 101 % of control | dose: 200.0 mg/kg/injection, schedule: Q01DX001 (ip), vehicle: saline with Tween-80 101 % of control | dose: 400.0 mg/kg/injection, schedule: Q01DX001 (ip), vehicle: saline with Tween-80 106 % of control
